Where a name gives a salt, the structure may show the parent alone. Read-outs that look alike come from different tables or passages of the source.
Legend:
serotonin transporter = target: T1, serotonin transporter (Rattus norvegicus, UniProt P31652); assay: 3H-paroxetine displacement, affinity for the serotonin transporter; type: binding
T1 construct: displace ^3H-paroxetine from male rat frontal cortical membranes; from tissue; host or cells: male rat frontal cortex membranes

human 5HT1A receptors = target: T2, human 5HT1A receptors (Homo sapiens, UniProt P08908); assay: [3H] 8-OH-DPAT displacement from the 5HT1A serotonin receptor (transfected CHO cells); type: binding
T2 construct: expressed in transfected cells; host or cells: CHO cells
T2 sequence (P08908 1-422): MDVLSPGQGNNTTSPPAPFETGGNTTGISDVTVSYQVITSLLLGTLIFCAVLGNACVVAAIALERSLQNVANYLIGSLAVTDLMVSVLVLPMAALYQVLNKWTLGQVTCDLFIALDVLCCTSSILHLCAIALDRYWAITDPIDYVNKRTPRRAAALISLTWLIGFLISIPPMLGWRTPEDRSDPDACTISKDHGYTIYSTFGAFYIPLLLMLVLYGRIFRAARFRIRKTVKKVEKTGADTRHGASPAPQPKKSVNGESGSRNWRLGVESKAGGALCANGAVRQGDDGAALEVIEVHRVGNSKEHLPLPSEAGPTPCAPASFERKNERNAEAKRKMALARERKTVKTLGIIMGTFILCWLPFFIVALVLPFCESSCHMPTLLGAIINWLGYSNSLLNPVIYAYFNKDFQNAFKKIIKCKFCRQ
Text: High affinity for the serotonin 5HT1A receptor was established by testing the claimed compound's ability to displace [^3H] 8-OH-DPAT (dipropylamino-tetralin) from the 5HT1A serotonin receptor following a modification of the procedure of Hall et al., J. Neurochem. 44, 1685 (1985) which utilizes CHO cells stably transfected with human 5HT1A receptors.

[1] = target: T3, cloned human 5HT1A receptors (Homo sapiens, UniProt P08908); assay: 35S-GTPγS binding assay, antagonist activity at 5HT1A receptors; type: biochemical; details: for IC50: 35S-GTPγS binding, reversal of the effects of the standard agonist 8-OH-DPAT, membranes with cloned human 5HT1A receptors, read-out: 5HT1A Function IC50; for Emax: maximum inhibitory effect in 35S-GTPγS binding versus 8-OH-DPAT, read-out: 5HT1A Function (Imax)
T3 construct: expressed in transfected cells
T3 sequence (P08908 1-422): T2 sequence (P08908 1-422)
Experimental: Antagonist activity at 5HT1A receptors was established by using a ^35S-GTPγS binding assay similar to that used by Lazareno and Birdsall (Br. J. Pharmacol. 109: 1120, 1993), in which the test compound's ability to affect the binding of 35S-GTPγS to membranes containing cloned human 5HT1A receptors was determined. Agonists produce an increase in binding whereas antagonists produce no increase but rather reverse the effects of the standard agonist 8-OH-DPAT. The test compound's maximum inhibitory effect is represented as the 1max, while its potency is defined by the IC50.

[2] = displacement of [3H] 8-OH-DPAT, CHO cells stably transfected with human 5HT1A receptors, read-out: 5HT1A Receptor Affinity KI

T1 sequence (P31652 whole entry): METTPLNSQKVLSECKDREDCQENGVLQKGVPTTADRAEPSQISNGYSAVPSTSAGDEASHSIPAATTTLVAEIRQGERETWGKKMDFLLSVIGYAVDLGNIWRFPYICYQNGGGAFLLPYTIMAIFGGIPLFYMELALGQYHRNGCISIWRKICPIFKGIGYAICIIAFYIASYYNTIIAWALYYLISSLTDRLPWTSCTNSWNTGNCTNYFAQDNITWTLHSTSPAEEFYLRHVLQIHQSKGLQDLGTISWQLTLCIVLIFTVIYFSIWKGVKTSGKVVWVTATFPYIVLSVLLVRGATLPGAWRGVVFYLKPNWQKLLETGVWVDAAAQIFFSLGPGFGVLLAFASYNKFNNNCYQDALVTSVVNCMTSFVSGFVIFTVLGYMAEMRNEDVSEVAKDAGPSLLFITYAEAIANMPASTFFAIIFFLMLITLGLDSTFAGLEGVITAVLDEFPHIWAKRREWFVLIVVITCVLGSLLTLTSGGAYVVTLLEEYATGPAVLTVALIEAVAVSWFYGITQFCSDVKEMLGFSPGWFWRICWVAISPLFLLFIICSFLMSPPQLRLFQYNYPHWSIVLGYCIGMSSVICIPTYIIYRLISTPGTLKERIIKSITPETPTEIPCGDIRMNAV

Row | SMILES | melting point [°C] | Ki (serotonin transporter; displacement of 3H-paroxetine from male rat frontal cortical membranes, read-out: 5-HT Transporter Affinity KI) [nM] | Ki (human 5HT1A receptors; [2]) [nM] | Ki (serotonin transporter) [nM] | Ki (human 5HT1A receptors) [nM] | IC50 [1] [nM] | Emax [1] [%]
1 | N#Cc1ccc2[nH]cc(C3=CCN(CC4COc5ccc6ncccc6c5O4)CC3)c2c1 (stereo not drawn) (as salt: fumarate) [Example 5, 3-[1-(2,3-Dihydro[1,4]dioxino[2,3-f]quinolin-2-ylmethyl)-1,2,3,6-tetrahydropyridin-4-yl]-1H-indole-5-carbonitrile] | 159 to 161 | – | – | – | – | – | –
2 | COc1cc2c(c3cccnc13)O[C@@H](CN1CC=C(c3c[nH]c4ccc(F)cc34)CC1)CO2 (as salt: fumarate) [Example 17, 2-[4-(5-Fluoro-1H-indol-3-yl)-3,6-dihydro-2H-pyridin-1-ylmethyl]-6-methoxy-2,3-dihydro[1,4]dioxino[2,3-f]qiuinoline] | 217 | – | – | – | – | – | –
3 | Cc1ccc2c3c(ccc2n1)OCC(CN1CC=C(c2c[nH]c4cc(F)ccc24)CC1)O3 (stereo not drawn) (as salt: oxalate) (hydrate or solvate) [Example 10, 2-[4-(6-Fluoro-1H-indol-3-yl)-3,6-dihydro-2H-pyridin-1-ylmethyl]-8-methyl-2,3-dihydro[1,4]dioxino[2,3-f]quinoline] | 140 to 143 | – | – | – | – | – | –
4 | Fc1ccc2[nH]cc(CC3CCN(C[C@H]4COc5ccc6ncccc6c5O4)CC3)c2c1 (as salt: oxalate) [Example 3] | 184 | – | – | – | – | – | –
5 | Fc1ccc2[nH]cc(C3=CCN(C[C@H]4COc5ccc6ncccc6c5O4)CC3)c2c1 (hydrate or solvate) [Example 2] | 184 | – | – | – | – | – | –
6 | C1=C(c2c[nH]c3ccccc23)CCN(C[C@H]2COc3ccc4ncccc4c3O2)C1 (hydrate or solvate) [Example 4, 2-[1,4-(1H-indol-3-yl)-3,6-dihydro-2H-pyridin-1-ylmethyl]-2,3-dihydro[1,4]dioxino[2,3-f]quinoline] | 217 | – | – | – | – | – | –
7 | Cc1ccc2c3c(ccc2n1)OCC(CN1CCC(Cc2c[nH]c4ccc(F)cc24)CC1)O3 (stereo not drawn) [Example 8, 2-({4-[(5-Fluoro-1H-indol-3-yl)methyl]piperidin-1-yl}methyl)-8-methyl-2,3-dihydro[1,4]dioxino[2,3-f]quinoline] | 91 to 92 | 2.56 | 7.24 | – | – | – | –
8 | Cc1ccc2c3c(ccc2n1)OCC(CN1CC=C(c2c[nH]c4ccccc24)CC1)O3 (stereo not drawn) [Example 9, 2-[4-(1H-Indol-3-yl)-3,6-dihydro-2H-yridin-1-ylmethyl]-8-methyl-2,3-dihydro[1,4]dioxino[2,3-f]quinoline] | 210 | – | – | 2.34 | 3.02 | 56.7 | 98.3
9 | CCc1ccc2c3c(ccc2n1)OCC(CN1CC=C(c2c[nH]c4ccccc24)CC1)O3 (stereo not drawn) [Example 13, 8-Ethyl-2-[(4-(1H-indol-3-yl)-3,6-dihydropyridin-1(2H)-yl)methyl]-2,3-dihydro[1,4]dioxino[2,3-f]quinoline] | 190 | – | – | 4.9 | 6.82 | 162 | 88.7
10 | Fc1cc2c(c3cccnc13)OC(CN1CC=C(c3c[nH]c4ccccc34)CC1)CO2 (stereo not drawn) [Example 16, 6-Fluoro-2-[4-(1H-indol-3-yl)-3,6-dihydro-2H-pyridin-1-ylmethyl]-2,3-dihydro[1,4]dioxino[2,3-f]quinoline] | 215 | – | 55.9 | 21 | – | – | –
11 | Cc1ccc2c3c(ccc2n1)OC[C@H](CN1CC=C(c2c[nH]c4c(F)cccc24)CC1)O3 [Example 21] | 205 to 221 | – | – | 2.94 | 7.75 | 51.7 | 100
12 | Cc1cnc2ccc3c(c2c1)OC(CN1CC=C(c2c[nH]c4ccccc24)CC1)CO3 (stereo not drawn) [Example 23, 2-[4-(1H-Indol-3-yl)-3,6-dihydro-2H-pyridin-1-ylmethyl]-9-methyl-2,3-dihydro[1,4]dioxino[2,3-f]quinoline] | 211 to 213 | – | 7.76 | 28 | – | – | –
